Values of other authors, collected in publication PMC9762682, “Tocotrienols: Exciting Biological and Pharmacological Properties of Tocotrienols and Naturally Occurring Compounds, Part II” (Annals of clinical case reports, 2022).
Where two headings read alike, the source gives them in different places.

Tests used:
[1] = system: Pancreas cancer cells; design: method as in PMID 29606130; value at effective dose: unit not given here; conditions: for effective dose / percentage of control at effective dose / value at effective dose: 48 h
[2] = system: Lung cancer cells; design: method as in PMID 29606130; value at effective dose: unit not given here
[3] = system: B-Lymphocyte cells; design: method as in PMID 29606130; value at effective dose: unit not given here;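 as to IC50: anti-proliferation of cancer cells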
[4] = system: TNF-α; conditions: LPS-induced macrophages of PPAR-α knockout female mice
[5] = system: Breast cancer cells; design: method as in PMID 29606130; value at effective dose: unit not given here;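 as to IC50: anti-proliferation of cancer cells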
[6] = system: T-cells (Jurkat); design: method as in PMID 29606130; value at effective dose: unit not given here
[7] = system: Liver cancer cells; design: method as in PMID 29606130; value at effective dose: unit not given here; conditions: for effective dose / percentage of control at effective dose / value at effective dose: 48 h
[8] = system: TNF-α; conditions: LPS-induced macrophages of wild type (C57BL/6) control group
[9] = system: Hela cells; design: method as in PMID 29606130; value at effective dose: unit not given here; conditions: for effective dose / percentage of control at effective dose / value at effective dose: 48 h;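 as to IC50: anti-proliferation of cancer cells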
[10] = system: Prostate cancer cells; design: method as in PMID 29606130; value at effective dose: scale not given here; conditions: for effective dose / percentage of control at effective dose / value at effective dose: 48 h;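 as to IC50: anti-proliferation of cancer cells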
[11] = system: Melanoma cells; design: method as in PMID 29606130
[12] = system: people with T2DM; conditions: for Fasting Glucose, Post-dose, percentage of control (pre-dose) in parentheses / MDA, Post-dose / MDA, Post-dose, percentage of control (pre-dose) in parentheses / hs-CRP, Post-dose / hs-CRP, Post-dose, percentage of control (pre-dose) in parentheses / Fasting Glucose, Post-dose: serum; for Fasting Glucose, Post-dose, percentage of control (pre-dose) in parentheses / MDA, Post-dose / MDA, Post-dose, percentage of control (pre-dose) in parentheses / hs-CRP, Post-dose / hs-CRP, Post-dose, percentage of control (pre-dose) in parentheses / Fasting HbA1c, Post-dose / Fasting HbA1c, Post-dose, percentage of control (pre-dose) in parentheses / HOMA-IR, Post-dose / HOMA-IR, Post-dose, percentage of control (pre-dose) in parentheses: two capsules/d for 24-weeks; for Fasting Glucose, Post-dose: two capsules/d for 24-weeks (δ-tocotrienol 250 mg, vitamin D3 5000 IU, resveratrol 250 mg per capsule)

Cc1cc2nc3c(=O)[nH]c(=O)nc-3n(C[C@H](O)[C@H](O)[C@H](O)CO)c2cc1C [(−) Riboflavin, Riboflavin]
effective dose [1]: 40 µM
percentage of control at effective dose [1]: 67%
value at effective dose [1]: 40.0 ± 2.0
effective dose [2]: 10 µM
percentage of control at IC50 dose [2]: 28%
percentage of control at effective dose [2]: 23%
value at effective dose [2]: 7.7 ± 2.1
IC50 [3]: 80 µM
effective dose [3]: 20 µM
percentage of control at IC50 dose [3]: 55%
percentage of control at effective dose [3]: 69%
value at effective dose [3]: 19.3 ± 3.1
effect on secretion of TNF-α [4]: activation
effective dose [5]: 80 µM
percentage of control at effective dose [5]: 61%
value at effective dose [5]: 12.7 ± 1.5
effective dose [6]: 20 µM
percentage of control at effective dose [6]: 32%
value at effective dose [6]: 142.0 ± 4.4
effective dose [7]: 80 µM
percentage of control at effective dose [7]: 91%
value at effective dose [7]: 74.0 ± 2.0
effect on secretion of TNF-α [8]: inhibition
effective dose [9]: 40 µM
percentage of control at effective dose [9]: 64%
value at effective dose [9]: 21.0 ± 1.0
IC50 [10]: 80 µM
percentage of control at IC50 dose [10]: 55%
effective dose [10]: 40 µM
percentage of control at effective dose [10]: 61%
value at effective dose [10]: 20.0 ± 2.0
effective dose [11]: 40 µM
percentage of control at effective dose [11]: 91%

C[C@@H]1C[C@H]2[C@@H]3CCC4=CC(=O)C=C[C@]4(C)[C@@]3(F)[C@@H](O)C[C@]2(C)[C@@]1(O)C(=O)CO [Dexamethasone]
effective dose [1]: 20 µM
percentage of control at effective dose [1]: 73%
value at effective dose [1]: 34.7 ± 4.0
IC50 [2]: 2.5 µM
effective dose [2]: 20 µM
percentage of control at IC50 dose [2]: 47%
percentage of control at effective dose [2]: 76%
value at effective dose [2]: 16.7 ± 2.1
IC50 [3]: 5 µM
effective dose [3]: 10 µM
percentage of control at IC50 dose [3]: 45%
percentage of control at effective dose [3]: 41%
value at effective dose [3]: 61.0 ± 3.6
effective dose [5]: 80 µM
percentage of control at effective dose [5]: 85%
value at effective dose [5]: 15.7 ± 3.1
effective dose [6]: 40 µM
percentage of control at effective dose [6]: 71%
value at effective dose [6]: 282.0 ± 21.7
effective dose [7]: 80 µM
percentage of control at effective dose [7]: 93%
value at effective dose [7]: 67.3 ± 4.0
IC50 [9]: 20 µM
percentage of control at IC50 dose [9]: 54%
effective dose [9]: 80 µM
percentage of control at effective dose [9]: 53%
value at effective dose [9]: 18.0 ± 4.0
IC50 [10]: 2.5 µM
percentage of control at IC50 dose [10]: 45%
effective dose [10]: 20 µM
percentage of control at effective dose [10]: 32%
value at effective dose [10]: 16.7 ± 1.5
effective dose [11]: 40 µM
percentage of control at effective dose [11]: 74%

O=c1c(O)c(-c2ccc(O)c(O)c2)oc2cc(O)cc(O)c12 [Quercetin]
IC50 [1]: 40 µM
percentage of control at IC50 dose [1]: 45%
effective dose [1]: 40 µM
percentage of control at effective dose [1]: 26%
value at effective dose [1]: 11.7 ± 0.6
IC50 [2]: 10 µM
effective dose [2]: 20 µM
percentage of control at IC50 dose [2]: 45%
percentage of control at effective dose [2]: 36%
value at effective dose [2]: 11.7 ± 1.5
IC50 [3]: 10 µM
effective dose [3]: 10 µM
percentage of control at IC50 dose [3]: 29%
percentage of control at effective dose [3]: 29%
value at effective dose [3]: 8.0 ± 3.0
effect on secretion of TNF-α [4]: activation
IC50 [5]: 10 µM
effective dose [5]: 20 µM
percentage of control at IC50 dose [5]: 39%
percentage of control at effective dose [5]: 27%
value at effective dose [5]: 5.7 ± 0.6
IC50 [6]: 10 µM
effective dose [6]: 40 µM
percentage of control at IC50 dose [6]: 45%
percentage of control at effective dose [6]: 81%
value at effective dose [6]: 409.3 ± 6.4
IC50 [7]: 20 µM
percentage of control at IC50 dose [7]: 32%
effective dose [7]: 40 µM
percentage of control at effective dose [7]: 29%
value at effective dose [7]: 24.0 ± 2.0
effect on secretion of TNF-α [8]: inhibition
IC50 [9]: 10 µM
percentage of control at IC50 dose [9]: 51%
effective dose [9]: 40 µM
percentage of control at effective dose [9]: 38%
value at effective dose [9]: 21.3 ± 1.5
IC50 [10]: 10 µM
percentage of control at IC50 dose [10]: 48%
effective dose [10]: 20 µM
percentage of control at effective dose [10]: 17%
value at effective dose [10]: 7.3 ± 1.2
IC50 [11]: 10 µM
effective dose [11]: 40 µM
percentage of control at IC50 dose [11]: 54%
percentage of control at effective dose [11]: 21%

C=C[C@H]1C[N@@]2CC[C@H]1C[C@H]2[C@H](O)c1ccnc2ccc(OC)cc12 [Quinine Sulphate]
effective dose [1]: 40 µM
percentage of control at effective dose [1]: 78%
value at effective dose [1]: 35.0 ± 3.0
effective dose [2]: 40 µM
percentage of control at effective dose [2]: 66%
effective dose [3]: 80 µM
percentage of control at effective dose [3]: 19%
effective dose [5]: 80 µM
percentage of control at effective dose [5]: 60%
value at effective dose [5]: 12.3 ± 2.3
IC50 [6]: 80 µM
effective dose [6]: 40 µM
percentage of control at IC50 dose [6]: 50%
percentage of control at effective dose [6]: 77%
value at effective dose [6]: 267.7 ± 29.7
IC50 [7]: 80 µM
percentage of control at IC50 dose [7]: 58%
effective dose [7]: 80 µM
percentage of control at effective dose [7]: 58%
value at effective dose [7]: 47.7 ± 2.1
IC50 [9]: 10 µM
percentage of control at IC50 dose [9]: 24%
effective dose [9]: 20 µM
percentage of control at effective dose [9]: 19%
IC50 [10]: 20 µM
percentage of control at IC50 dose [10]: 36%
effective dose [10]: 20 µM
percentage of control at effective dose [10]: 36%
value at effective dose [10]: 15.7 ± 2.1
IC50 [11]: 80 µM
effective dose [11]: 20 µM
percentage of control at IC50 dose [11]: 50%
percentage of control at effective dose [11]: 56%

C=C(NC(=O)C(=C)NC(=O)c1csc(C2=N[C@@H]3c4csc(n4)[C@H]4NC(=O)c5csc(n5)[C@H]([C@](C)(O)[C@@H](C)O)NC(=O)[C@H]5CSC(=N5)/C(=C/C)NC(=O)[C@H]([C@@H](C)O)NC(=O)c5csc(n5)[C@]3(CC2)NC(=O)[C@H](C)NC(=O)C(=C)NC(=O)[C@H](C)NC(=O)[C@H]([C@@H](C)CC)N[C@@H]2C=Cc3c([C@H](C)O)cc(nc3[C@H]2O)C(=O)O[C@@H]4C)n1)C(N)=O [Thiostrepton]
IC50 [1]: 5 µM
percentage of control at IC50 dose [1]: 29%
effective dose [1]: 10 µM
percentage of control at effective dose [1]: 16%
value at effective dose [1]: 7.7 ± 0.6
IC50 [2]: 5 µM
effective dose [2]: 5 µM
percentage of control at IC50 dose [2]: 48%
percentage of control at effective dose [2]: 28%
value at effective dose [2]: 7.0 ± 2.0
effective dose [3]: 2.5 µM
percentage of control at IC50 dose [3]: 23%
percentage of control at effective dose [3]: 23%
value at effective dose [3]: 15.7 ± 4.0
IC50 [5]: 20 µM
effective dose [5]: 10 µM
percentage of control at IC50 dose [5]: 16%
percentage of control at effective dose [5]: 29%
value at effective dose [5]: 6.7 ± 0.6
effective dose [6]: 2.5 µM
percentage of control at IC50 dose [6]: 5%
percentage of control at effective dose [6]: 5%
value at effective dose [6]: 21.3 ± 2.1
IC50 [7]: 2.5 µM
percentage of control at IC50 dose [7]: 53%
effective dose [7]: 10 µM
percentage of control at effective dose [7]: 8%
value at effective dose [7]: 6.7 ± 2.2
IC50 [9]: 10 µM
percentage of control at IC50 dose [9]: 24%
effective dose [9]: 40 µM
percentage of control at effective dose [9]: 16%
value at effective dose [9]: 8.7 ± 1.5
IC50 [10]: 2.5 µM
percentage of control at IC50 dose [10]: 53%
effective dose [10]: 5 µM
percentage of control at effective dose [10]: 19%
value at effective dose [10]: 7.0 ± 1.7
effective dose [11]: 5 µM
percentage of control at IC50 dose [11]: 34%
percentage of control at effective dose [11]: 13%

C=C1CC[C@H](O)C/C1=C/C=C1\CCC[C@]2(C)[C@@H]([C@H](C)CCCC(C)C)CC[C@@H]12 [Vitamin D3]
Fasting Glucose, Post-dose, percentage of control (pre-dose) in parentheses [12]: 95%
MDA, Post-dose [12]: 3.48 µmol/L
MDA, Post-dose, percentage of control (pre-dose) in parentheses [12]: 97%
hs-CRP, Post-dose [12]: 3.09 mg/L
hs-CRP, Post-dose, percentage of control (pre-dose) in parentheses [12]: 92%
Fasting Glucose, Post-dose [12]: 7.16 mmol/L
Fasting HbA1c, Post-dose [12]: 8.19%
Fasting HbA1c, Post-dose, percentage of control (pre-dose) in parentheses [12]: 93%
HOMA-IR, Post-dose [12]: 4.74
HOMA-IR, Post-dose, percentage of control (pre-dose) in parentheses [12]: 89%

Oc1ccc(/C=C/c2cc(O)cc(O)c2)cc1 [trans-Resveratrol]
Fasting Glucose, Post-dose, percentage of control (pre-dose) in parentheses [12]: 94%
MDA, Post-dose [12]: 3.49 µmol/L
MDA, Post-dose, percentage of control (pre-dose) in parentheses [12]: 91%
hs-CRP, Post-dose [12]: 3.28 mg/L
hs-CRP, Post-dose, percentage of control (pre-dose) in parentheses [12]: 89%
Fasting Glucose, Post-dose [12]: 6.98 mmol/L
Fasting HbA1c, Post-dose [12]: 7.86%
Fasting HbA1c, Post-dose, percentage of control (pre-dose) in parentheses [12]: 92%
HOMA-IR, Post-dose [12]: 4.98
HOMA-IR, Post-dose, percentage of control (pre-dose) in parentheses [12]: 93%
